From US6737383B1, “Herbicidal oxadiazolidines” (priority 1999, dated 2004)

What was measured:
soybean = assay: Test B pre/postemergence soybean; type: in vivo, Glycine max
Outline: (§1)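 Test chemicals in a non-phytotoxic solvent mixture with surfactant were sprayed preemergence onto planted seeds and postemergence onto plants 2 to 18 cm tall (1- to 4-leaf stage). After twelve to sixteen days in a greenhouse, injury was visually rated against untreated controls from 0 (no effect) to 10 (complete control).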

duck salad = assay: Test B flood test duck salad; type: in vivo, Heteranthera limosa
Outline: (§2)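 Read-out is a visual response score from 0 (no effect) to 10 (complete control), assigned by comparison with untreated controls. Treatment was applied at the 2-leaf stage, and plants stayed in the greenhouse for twelve to sixteen days before scoring.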

pigweed = assay: Test B pre/postemergence pigweed; type: in vivo, Amaranthus retroflexus
Outline: as §1

wild oat = assay: Test B pre/postemergence wild oat; type: in vivo, Avena fatua
Outline: as §1

wheat = assay: Test B pre/postemergence wheat; type: in vivo, Triticum aestivum
Outline: as §1

purple nutsedge = assay: Test B pre/postemergence purple nutsedge; type: in vivo, Cyperus rotundus
Outline: as §1

rice = assay: Test B flood test rice; type: in vivo, Oryza sativa
Outline: as §2

velvetleaf = assay: Test B pre/postemergence velvetleaf; type: in vivo, Abutilon theophrasti
Outline: as §1

rape = assay: Test B pre/postemergence rape; type: in vivo, Brassica napus
Outline: as §1

bamyardgrass = assay: Test B flood test barnyardgrass; type: in vivo, Echinochloa crus-galli
Outline: as §2

morningglory = assay: Test B pre/postemergence morningglory; type: in vivo, Ipomoea hederacea
Outline: as §1

smallflower flatsedge = assay: Test B flood test smallflower flatsedge; type: in vivo, Cyperus difformis
Outline: as §2

bedstraw = assay: Test B pre/postemergence bedstraw; type: in vivo, Galium aparine; details: Preemergence; for Bedstraw plant response rating: scale 0 to 10, 0 is no effect, 10 is complete control
Outline: as §1

sugar beet = assay: Test B pre/postemergence sugar beet; type: in vivo, Beta vulgaris
Outline: as §1

giant foxtail = assay: Test B pre/postemergence giant foxtail; type: in vivo, Setaria faberii
Outline: as §1

cocklebur = assay: Test B pre/postemergence cocklebur; type: in vivo, Xanthium strumarium
Outline: as §1

corn = assay: Test B pre/postemergence corn; type: in vivo, Zea mays
Outline: as §1

crabgrass = assay: Test B pre/postemergence crabgrass; type: in vivo, Digitaria sanguinalis
Outline: as §1

blackgrass = assay: Test B pre/postemergence blackgrass; type: in vivo, Alopecurus myosuroides
Outline: as §1

surinam grass = assay: Test B pre/postemergence surinam grass; type: in vivo, Brachiaria decumbens
Outline: as §1

[1] = Postemergence, Rate 62 g/ha, scale of 0 to 10, 0 is no effect, 10 is complete control
[2] = Postemergence, Rate 125 g/ha, scale 0 to 10, 0 is no effect, 10 is complete control
[3] = Postemergence, Rate 500 g/ha, scale 0 to 10, 0 is no effect, 10 is complete control
[4] = Preemergence, Rate 62 g/ha, scale of 0 to 10 where 0 is no effect and 10 is complete control
[5] = Preemergence, Rate 125 g/ha, scale 0 to 10, 0 is no effect, 10 is complete control
[6] = Rate 62 g/ha, flood test species, Pre-emergence, visual evaluation after twelve to sixteen days
[7] = Rate 125 g/ha, under heading Pre-emergence, flood test species, visual evaluation after twelve to sixteen days
[8] = Rate 250 g/ha, Pre-emergence (flood test species), scale 0 to 10, 0 is no effect, 10 is complete control
[9] = Rate 500 g/ha, Pre-emergence section of Table B, 0 to 10 scale (0 no effect, 10 complete control)
[10] = Preemergence, Rate 500 g/ha, scale of 0 to 10 where 0 is no effect and 10 is complete control
[11] = Postemergence, Rate 250 g/ha, scale 0 to 10
[12] = Preemergence, Rate 250 g/ha, scale 0 to 10, 0 is no effect, 10 is complete control

For `CC(C)N(C(=O)n1oc(=O)n(CC2CC2)c1=O)c1ccc(F)cc1F` [Compound 509], the “Soybean plant response rating” value (soybean; [1]) was 1, the “Soybean plant response rating” value (soybean; [2]) was 3 and the “Plant response rating, Soybean” value (soybean; [3]) was 5. The “Plant response rating, Soybean” value (soybean; [4]) was 0, the “Soybean plant response rating” value (soybean; [5]) was 0 and the “Plant response rating, Ducksalad (0 to 10 scale, 0 is no effect, 10 is complete control)” value (duck salad; [6]) was 0. For the same compound, the “Ducksalad plant response rating (0 to 10 scale, 0 is no effect, 10 is complete control)” value (duck salad; [7]) was 0, the “Ducksalad plant response rating” value (duck salad; [8]) was 0 and the “Ducksalad plant response rating” value (duck salad; [9]) was 0. The “Redroot pigweed plant response rating” value (pigweed; [1]) was 0, the “Redroot pigweed plant response rating” value (pigweed; [2]) was 0 and the “Plant response rating, Redroot pigweed” value (pigweed; [3]) was 5. The “Plant response rating, Redroot pigweed” value (pigweed; [4]) was 0, the “Redroot pigweed plant response rating” value (pigweed; [5]) was 0 and the “Redroot pigweed plant response rating” value (pigweed; [10]) was 10. The “Wild oats plant response rating” value (wild oat; [1]) was 0, the “Wild oats plant response rating” value (wild oat; [2]) was 0 and the “Plant response rating, Wild oats” value (wild oat; [3]) was 8. For the same compound, the “Plant response rating, Wild oats” value (wild oat; [4]) was 0, the “Wild oats plant response rating” value (wild oat; [5]) was 2 and the “Wild oats plant response rating” value (wild oat; [10]) was 9. The “Wheat plant response rating” value (wheat; [1]) was 0, the “Wheat plant response rating” value (wheat; [2]) was 0 and the “Plant response rating, Wheat” value (wheat; [3]) was 2. The “Plant response rating, Wheat” value (wheat; [4]) was 0, the “Wheat plant response rating” value (wheat; [5]) was 0 and the “Wheat plant response rating” value (wheat; [10]) was 7. For the same compound, the “Nutsedge plant response rating” value (purple nutsedge; [1]) was 0, the “Nutsedge plant response rating” value (purple nutsedge; [2]) was 0 and the “Plant response rating, Nutsedge” value (purple nutsedge; [4]) was 0. The “Nutsedge plant response rating” value (purple nutsedge; [5]) was 0, the “Nutsedge plant response rating” value (purple nutsedge; [10]) was 0 and the “Plant response rating, Rice (0 to 10 scale, 0 is no effect, 10 is complete control)” value (rice; [6]) was 0. For the same compound, the “Rice plant response rating (0 to 10 scale, 0 is no effect, 10 is complete control)” value (rice; [7]) was 0, the “Rice plant response rating” value (rice; [8]) was 0 and the “Rice plant response rating” value (rice; [9]) was 0. For the same compound, the “Velvetleaf plant response rating” value (velvetleaf; [1]) was 2, the “Velvetleaf plant response rating” value (velvetleaf; [2]) was 4 and the “Plant response rating, Velvetleaf” value (velvetleaf; [3]) was 7. For the same compound, the “Plant response rating, Velvetleaf” value (velvetleaf; [4]) was 3, the “Velvetleaf plant response rating” value (velvetleaf; [5]) was 6 and the “Velvetleaf plant response rating” value (velvetleaf; [10]) was 8. For the same compound, the “Rape plant response rating” value (rape; [1]) was 0, the “Rape plant response rating” value (rape; [2]) was 0 and the “Plant response rating, Rape” value (rape; [3]) was 4. For the same compound, the “Plant response rating, Rape” value (rape; [4]) was 0, the “Rape plant response rating” value (rape; [5]) was 0 and the “Rape plant response rating” value (rape; [10]) was 10. The “Plant response rating, Barnyardgrass (0 to 10 scale, 0 is no effect, 10 is complete control)” value (bamyardgrass; [6]) was 0, the “Barnyardgrass plant response rating (0 to 10 scale, 0 is no effect, 10 is complete control)” value (bamyardgrass; [7]) was 0 and the “Barnyardgrass plant response rating” value (bamyardgrass; [8]) was 0. For the same compound, the “Barnyardgrass plant response rating” value (bamyardgrass; [9]) was 0, the “Plant response rating, Morningglory” value (morningglory; [3]) was 5 and the “Plant response rating, Morningglory” value (morningglory; [4]) was 0. For the same compound, the “Morningglory plant response rating” value (morningglory; [5]) was 0, the “Morningglory plant response rating” value (morningglory; [10]) was 3 and the “Plant response rating, S. Flatsedge (0 to 10 scale, 0 is no effect, 10 is complete control)” value (smallflower flatsedge; [6]) was 0. For the same compound, the “S. Flatsedge plant response rating (0 to 10 scale, 0 is no effect, 10 is complete control)” value (smallflower flatsedge; [7]) was 0, the “S. Flatsedge plant response rating” value (smallflower flatsedge; [8]) was 0 and the “S. Flatsedge plant response rating” value (smallflower flatsedge; [9]) was 0. The “Plant response rating, Bedstraw” value (bedstraw; Rate 62 g/ha, scale of 0 to 10 where 0 is no effect and 10 is complete control) was 0, the “Bedstraw plant response rating” value (bedstraw; Rate 125 g/ha) was 0 and the “Bedstraw plant response rating” value (bedstraw; Rate 250 g/ha) was 10. For the same compound, the “Bedstraw plant response rating” value (bedstraw; Rate 500 g/ha) was 9, the “Sugarbeets plant response rating” value (sugar beet; [1]) was 0 and the “Sugarbeets plant response rating” value (sugar beet; [2]) was 0. The “Plant response rating, Sugarbeets” value (sugar beet; [3]) was 7, the “Plant response rating, Sugarbeets” value (sugar beet; [4]) was 0 and the “Sugarbeets plant response rating” value (sugar beet; [5]) was 4. The “Sugarbeets plant response rating” value (sugar beet; [10]) was 7, the “Giant foxtail plant response rating” value (giant foxtail; [1]) was 3 and the “Giant foxtail plant response rating” value (giant foxtail; [2]) was 7. The “Plant response rating, Giant foxtail” value (giant foxtail; [3]) was 8, the “Plant response rating, Giant foxtail” value (giant foxtail; [4]) was 9 and the “Giant foxtail plant response rating” value (giant foxtail; [5]) was 9. The “Giant foxtail plant response rating” value (giant foxtail; [10]) was 10, the “Cocklebur plant response rating” value (cocklebur; [1]) was 0 and the “Cocklebur plant response rating” value (cocklebur; [2]) was 0. The “Cocklebur plant response rating” value (cocklebur; [11]) was 0, the “Plant response rating, Cocklebur” value (cocklebur; [3]) was 4 and the “Plant response rating, Cocklebur” value (cocklebur; [4]) was 0. The “Cocklebur plant response rating” value (cocklebur; [5]) was 0, the “Cocklebur plant response rating” value (cocklebur; [12]) was 0 and the “Cocklebur plant response rating” value (cocklebur; [10]) was 5. For the same compound, the “Corn plant response rating” value (corn; [1]) was 0, the “Corn plant response rating” value (corn; [2]) was 0 and the “Corn plant response rating” value (corn; [11]) was 0. The “Plant response rating, Corn” value (corn; [3]) was 1, the “Plant response rating, Corn” value (corn; [4]) was 0 and the “Corn plant response rating” value (corn; [5]) was 0. The “Corn plant response rating” value (corn; [10]) was 6, the “Crabgrass plant response rating” value (crabgrass; [1]) was 3 and the “Crabgrass plant response rating” value (crabgrass; [2]) was 9. For the same compound, the “Crabgrass plant response rating” value (crabgrass; [11]) was 9, the “Plant response rating, Crabgrass” value (crabgrass; [3]) was 9 and the “Plant response rating, Crabgrass” value (crabgrass; [4]) was 3. The “Crabgrass plant response rating” value (crabgrass; [5]) was 7, the “Crabgrass plant response rating” value (crabgrass; [10]) was 10 and the “Blackgrass plant response rating” value (blackgrass; [1]) was 2. For the same compound, the “Blackgrass plant response rating” value (blackgrass; [2]) was 5, the “Blackgrass plant response rating” value (blackgrass; [11]) was 6 and the “Plant response rating, Blackgrass” value (blackgrass; [3]) was 9. For the same compound, the “Plant response rating, Blackgrass” value (blackgrass; [4]) was 5, the “Blackgrass plant response rating” value (blackgrass; [5]) was 7 and the “Blackgrass plant response rating” value (blackgrass; [12]) was 8. For the same compound, the “Blackgrass plant response rating” value (blackgrass; [10]) was 10, the “B. signalgrass plant response rating” value (surinam grass; [1]) was 0 and the “B. signalgrass plant response rating” value (surinam grass; [2]) was 0. The “B. signalgrass plant response rating” value (surinam grass; Postemergence, Rate 250 g/ha, scale 0 to 10, 0 no effect, 10 complete control) was 2, the “Plant response rating, B. signalgrass” value (surinam grass; [3]) was 7 and the “Plant response rating, B. signalgrass” value (surinam grass; [4]) was 2. For the same compound, the “B. signalgrass plant response rating” value (surinam grass; [5]) was 3, the “B. signalgrass plant response rating” value (surinam grass; [12]) was 8 and the “B. signalgrass plant response rating” value (surinam grass; Preemergence, Rate 500 g/ha, scale 0 to 10, 0 is no effect, 10 is complete control) was 9.
